What was measured:
[1] = target: SREBP-2 (Homo sapiens (Human), UniProt Q12772); test: In vitro assay SREBP-2: PathHunter U2OS SREBP-2 Nuclear Translocation Cell Line, U18666A-stimulated; assay type: cell-based; details: PathHunter U2OS SREBP-2 nuclear translocation cells, U18666A 10 μM, overnight (16 hours)
[2] = target: LXRβ (Homo sapiens (Human), UniProt P55055); test: In vitro assay LXRβ: PathHunter NHR CHO cells, LXRβ / Steroid Receptor Co-activator Peptide enzyme fragment complementation; assay type: cell-based; details: PathHunter NHR CHO cells, full-length human LXRβ and SRCP, chemiluminescent signal; read-out: LXRβ PPI
Sequence of LXRβ (P55055 whole entry, the tested form may be a part): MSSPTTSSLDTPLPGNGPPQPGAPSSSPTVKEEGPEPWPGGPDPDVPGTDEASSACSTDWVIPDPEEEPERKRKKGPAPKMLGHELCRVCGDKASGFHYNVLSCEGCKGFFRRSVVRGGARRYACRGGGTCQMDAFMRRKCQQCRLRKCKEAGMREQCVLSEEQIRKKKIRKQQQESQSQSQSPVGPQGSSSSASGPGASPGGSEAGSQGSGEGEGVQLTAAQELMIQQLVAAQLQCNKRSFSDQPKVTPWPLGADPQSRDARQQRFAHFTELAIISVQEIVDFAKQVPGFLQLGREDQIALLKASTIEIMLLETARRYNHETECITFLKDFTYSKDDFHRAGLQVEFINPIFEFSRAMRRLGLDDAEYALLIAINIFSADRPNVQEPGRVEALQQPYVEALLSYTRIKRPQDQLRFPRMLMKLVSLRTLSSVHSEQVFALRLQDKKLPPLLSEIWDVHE
In short: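 Co-activator recruitment measured by chemiluminescence after signal generation. The CHO line carries full-length human LXRβ tagged with ProLink and an SRCP–enzyme acceptor fusion in the nucleus; cells sat overnight at 37° C before testing, in charcoal-dextran filtered serum medium with 1% final vehicle.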

| Structure (SMILES) | IC50 [1] [µM] | EC50 [2] [µM] |
| --- | --- | --- |
| C[C@H](CCc1ncns1)[C@H]1CC[C@H]2[C@@H]3CC=C4C[C@@H](O)CC[C@]4(C)[C@H]3CC[C@]12C [Example 174, (1R,3aS,3bS,7S,9aR,9bS,11aR)-9a,11a-dimethyl-1-[(2R)-4-(1,2,4-thiadiazol-5-yl)butan-2-yl]-1H,2H,3H,3aH,3bH,4H,6H,7H,8H,9H,9aH,9bH,10H,11H,11aH-cyclopenta[a]phenanthren-7-ol] | 0.25 to 1 | 0.25 to 1 |
| C[C@H](CCC(=O)N1CCN(C(=O)c2ccncc2)[C@@H](C)C1)[C@H]1CC[C@H]2[C@@H]3CC=C4C[C@@H](O)CC[C@]4(C)[C@H]3CC[C@]12C [Example 577, (R)-4-((3S,8S,9S,10R,13R,14S,17R)-3-hydroxy-10,13-dimethyl-2,3,4,7,8,9,10,11,12,13,14,15,16,17-tetradecahydro-1H-cyclopenta[a]phenanthren-17-yl)-1-((S)-4-isonicotinoyl-3-methylpiperazin-1-yl)pentan-1-one] | < 0.25 | > 10 |
| Cc1cnc(CC[C@@H](C)[C@H]2CC[C@H]3[C@@H]4CC=C5C[C@@H](O)CC[C@]5(C)[C@H]4CC[C@]23C)nc1 [Example 192, (3S,8S,9S,10R,13R,14S,17R)-10,13-dimethyl-17-((R)-4-(5-methylpyrimidin-2-yl)butan-2-yl)-2,3,4,7,8,9,10,11,12,13,14,15,16,17-tetradecahydro-1H-cyclopenta[a]phenanthren-3-ol] | < 0.25 | > 10 |
| C[C@H](CCC(=O)N1CCN(C(=O)c2cn[nH]c2)CC1)[C@H]1CC[C@H]2[C@@H]3CC=C4C[C@@H](O)CC[C@]4(C)[C@H]3CC[C@]12C [Example 310, (R)-1-(4-(1H-pyrazole-4-carbonyl)piperazin-1-yl)-4-((3S,8S,9S,10R,13R,14S,17R)-3-hydroxy-10,13-dimethyl-2,3,4,7,8,9,10,11,12,13,14,15,16,17-tetradecahydro-1H-cyclopenta[a]phenanthren-17-yl)pentan-1-one] | < 0.25 | > 10 |
| C[C@H](CCC(=O)N1CCN(c2ccnnc2)CC1)[C@H]1CC[C@H]2[C@@H]3CC=C4C[C@@H](O)CC[C@]4(C)[C@H]3CC[C@]12C [Example 487, (R)-4-((3S,8S,9S,10R,13R,14S,17R)-3-hydroxy-10,13-dimethyl-2,3,4,7,8,9,10,11,12,13,14,15,16,17-tetradecahydro-1H-cyclopenta[a]phenanthren-17-yl)-1-(4-(pyridazin-4-yl)piperazin-1-yl)pentan-1-one] | < 0.25 | > 10 |
| C[C@H](CCC(=O)N1CC2(C1)CC(C)(CO)C2)[C@H]1CC[C@H]2[C@@H]3CC=C4C[C@@H](O)CC[C@]4(C)[C@H]3CC[C@]12C [Example 372, (R)-4-((3S,8S,9S,10R,13R,14S,17R)-3-hydroxy-10,13-dimethyl-2,3,4,7,8,9,10,11,12,13,14,15,16,17-tetradecahydro-1H-cyclopenta[a]phenanthren-17-yl)-1-(6-(hydroxymethyl)-6-methyl-2-azaspiro[3.3]heptan-2-yl)pentan-1-one] | < 0.25 | > 10 |
| C[C@H](CCC(=O)N1CCC2(CCOC2)CC1)[C@H]1CC[C@H]2[C@@H]3CC=C4C[C@@H](O)CC[C@]4(C)[C@H]3CC[C@]12C [Example 89, (R)-4-((3S,8S,9S,10R,13R,14S,17R)-3-hydroxy-10,13-dimethyl-2,3,4,7,8,9,10,11,12,13,14,15,16,17-tetradecahydro-1H-cyclopenta[a]phenanthren-17-yl)-1-(2-oxa-δ-azaspiro[4.5]decan-δ-yl)pentan-1-one] | < 0.25 | > 10 |
| C[C@@H](NC(=O)C(=O)N(C)C)[C@H]1CC[C@H]2[C@@H]3CC=C4C[C@@H](O)CC[C@]4(C)[C@H]3CC[C@]12C (single isomer, unassigned) [Example 118] | > 10 | > 10 |

— US20230340011A1 (Asteroid Therapeutics, priority 2022, published 2023)
